What was measured:
[1] = molecular target: T1, nitrogenase (Azotobacter vinelandii, UniProt P00459); assay: Chloroplast-coupled evolution of hydrogen by nitrogenase in the absence of substrate; assay type: biochemical; details: Table II, hydrogen evolution; for ACTIVITY (nmoles H2 /mg protein/min): no nitrogen or acetylene, synthetic carriers 2 mM, ferredoxin 0.2 mM
T1 construct: the nitrogenase sample was prepared from a culture of Azotobacter vinelandii; endogenous in cells; host or cells: Azotobacter vinelandii culture; French press lysate, 10,000 x g supernatant (crude)
Protocol: (§1) For the bioassay, the nitrogenase sample was prepared from a culture of Azotobacter vinelandii grown to a cell density of about 1 g/l. The cells harvested by centrifugation were broken in a French press, cell debris spun off at 10,000 XG for 1 hr., and the supernatant containing 40 mg/ml protein was used in the bioassay experiments. […] chloroplasts from spinach leaves as described by Benemann were also used. The synthetic carriers were tested in aqueous solutions at concentrations of 2 mM, while the standard, clostridial ferredoxin, was used in 0.2 mM aqueous solution. The concentrations of carriers in the assay mixtures were chosen so as to guarantee carrier saturation conditions. Thus, the observed differences in rates of ethylene production from the substrate acetylene were assigned directly to variations in the efficiency of electron transfer from the illuminated chloroplast to the nitrogenase. The results obtained for acetylene reduction (nitrogen fixation) using the pyrazinium compounds of Examples 1 through 42 are summarized in Table I and are expressed as nmoles of ethylene produced per mg protein per minute.
It has been recognized for sometime the connection existing between hydrogen metabolism and nitrogen fixation. […] When nitrogenase was purified extensively, as mentioned above, it became apparent that in addition to nitrogen, nitrogenase also catalyzed the reduction of protons. The evolution of hydrogen is particularly active in the absence of the normal substrates for nitrogenase (nitrogen, acetylene, cyanide, azide, etc.), and is dependent upon a strong reductant and adenosine triphosphate hydrolysis. Since hydrogen evolution is not inhibited by CO, but reduction of nitrogen and other substrates is, the reduction of protons presumably occurs at a site other than the site of nitrogen reduction, H. C. Winter, et. al., Ann Rev. Biochem, 45, 409 (1976). Accordingly, with the same bioassay system and with exclusion of nitrogen, and acetylene, the activity of the pyrazinium compounds to act as carriers for production of hydrogen has been determined.
The results of this study, which are summarized in Table II, indicate that the pyrazinium salts that mediate the reduction of acetylene with electrons from the photoexcited chloroplast, are also mediating the reduction of protons by the nitrogenase.

[2] = Polarographic half-wave potential (first wave reduction); assay type: physicochemical; details: 0.1 M phosphate buffer pH 7.55, 25° C.
Excerpt: Sci., 65, 1471(1976). Therefore, it was of interest to measure polarographically the half-wave potentials of the several pyrazinium salts under consideration, to determine the possible effect of structure upon their redox potentials.

[3] = molecular target: T1, nitrogenase; assay: Chloroplast-coupled reduction of acetylene to ethylene by nitrogenase (electron carrier bioassay of Benemann); assay type: biochemical; details: for ACTIVITY RELATIVE TO FERREDOXIN (%) / ACTIVITY (nmoles C2 H4 /mg protein/min): Table I; for ACTIVITY RELATIVE TO FERREDOXIN (%): acetylene reduction to ethylene; for ACTIVITY (nmoles C2 H4 /mg protein/min): illuminated spinach chloroplasts, synthetic carriers 2 mM, clostridial ferredoxin 0.2 mM; for ETHYLENE FORMATION % Ferredoxin Activity: Table III ranking; for % FERREDOXIN ACTIVITY: Table IV, acetylene reduction
Protocol: The activity of the pyrazinium compounds as electron carriers in an illuminated photocouple process using isolated chloroplasts and the reductive enzyme catalyst nitrogenease has been determined using the bioassay of Benemann, et al., Proc. Natl. Acad. Sci. USA, 64, 1079(1969). In this method, the carrier activity is measured as a function of nitrogenase reduction of acetylene to ethylene, the rate of production of ethylene being the direct measurement.
as §1

[4] = cited from earlier work

T1 sequence (P00459 2-290 limits assumed): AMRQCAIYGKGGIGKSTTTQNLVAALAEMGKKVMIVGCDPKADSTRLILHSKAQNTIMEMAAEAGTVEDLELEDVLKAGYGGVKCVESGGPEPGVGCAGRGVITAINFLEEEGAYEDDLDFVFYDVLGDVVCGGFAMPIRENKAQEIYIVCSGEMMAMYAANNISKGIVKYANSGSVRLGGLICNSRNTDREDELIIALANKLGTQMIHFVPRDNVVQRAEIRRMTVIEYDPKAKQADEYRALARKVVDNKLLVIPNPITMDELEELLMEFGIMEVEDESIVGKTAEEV

Compound	ACTIVITY RELATIVE TO FERREDOXIN (%) [1]	ACTIVITY (nmoles H2 /mg protein/min) [1]	E1/2 vs. SCE (mV) [2]	ACTIVITY RELATIVE TO FERREDOXIN (%) [3]	ACTIVITY (nmoles C2 H4 /mg protein/min) [3]	ETHYLENE FORMATION % Ferredoxin Activity [3]	% FERREDOXIN ACTIVITY [3]	midpoint potential ([4]; natural electron carriers for the nitrogenase)	half-wave potential ([4]; pH 7.52)
C[n+]1ccnc(CS(=O)(=O)[O-])c1 [Compound 2800]	140%	37.3 nmoles H2 /mg protein/min	-690 mV	61%	8.3 nmoles C2 H4 /mg protein/min	61%	61%		
Cc1c[n+](C)cc(CS(=O)(=O)[O-])n1 [Compound 3000]	124%	33.1 nmoles H2 /mg protein/min	-738 mV	99%	13.4 nmoles C2 H4 /mg protein/min	99%	99%		
Cc1cnc(CS(=O)(=O)[O-])c[n+]1C [Compound 3200]	161%	43.1 nmoles H2 /mg protein/min	-673 mV	98%	13.3 nmoles C2 H4 /mg protein/min	98%	98%		
CCC(O)Cc1c[n+](C)ccn1.[I-] (stereo not drawn) [Compound 3400, 1-Methyl-3-(2-hydroxybutyl)pyrazinium iodide]	111%	29.7 nmoles H2 /mg protein/min	-680 mV	20%	2.7 nmoles C2 H4 /mg protein/min	20%	20%		
CCC(=O)Cc1c[n+](C)ccn1 [Compound 3500, 1-Methyl-3-(2-oxybutyl)pyrazinium iodide]	19%	5.0 nmoles H2 /mg protein/min	-575 mV	5%	0.7 nmoles C2 H4 /mg protein/min	5%	5%		
C[n+]1ccnc(C(C)(C)[N+](=O)[O-])c1.[I-] [Compound 3700, 1-Methyl-3-(1-nitroisopropyl)pyrazinium iodide]	32%	8.6 nmoles H2 /mg protein/min	-701 mV	31%	4.2 nmoles C2 H4 /mg protein/min	31%	31%		
CC(=O)NCCc1c[n+](C)ccn1.[I-] [Compound 3800, 1-Methyl-3-(2-acetamidoethyl)pyrazinium iodide]	22%	5.8 nmoles H2 /mg protein/min	-681 mV	15%	2.0 nmoles C2 H4 /mg protein/min	15%	15%		
COC(=O)CCc1c[n+](C)ccn1.[I-] [Compound 3901, 1-methyl-3-(2-carbomethoxyethyl)pyrazinium iodide]	26%	6.9 nmoles H2 /mg protein/min	-685 mV	22%	3.0 nmoles C2 H4 /mg protein/min	22%	22%		
C[n+]1ccnc(CCC(N)=O)c1 [Compound 4000, 1-Methyl-3-(2-carboxamidoethyl)pyrazinium iodide]	36%	9.5 nmoles H2 /mg protein/min	-685 mV	28%	3.8 nmoles C2 H4 /mg protein/min	28%	28%		
C[n+]1ccnc(CC(C(O)CO)S(=O)(=O)[O-])c1 (stereo not drawn) [Compound 4100]	73%	19.4 nmoles H2 /mg protein/min	-720 mV	110%	14.8 nmoles C2 H4 /mg protein/min	110%	110%		
Cc1c[n+](C)ccn1 [Compound 4300]	14%	3.7 nmoles H2 /mg protein/min	-696 mV	5%	0.7 nmoles C2 H4 /mg protein/min	5%	5%		
C[n+]1ccnc(C(=O)O)c1 [Compound 4400]	0%	0.0 nmoles H2 /mg protein/min	-613 mV	0%	0.0 nmoles C2 H4 /mg protein/min	0%	0%		
COC(=O)c1c[n+](C)ccn1 [Compound 4500]	0%	0.0 nmoles H2 /mg protein/min	-390 mV	0%	0.0 nmoles C2 H4 /mg protein/min	0%	0%		
C[n+]1ccnc(C(N)=O)c1 [Compound 4600]	0%	0.0 nmoles H2 /mg protein/min	-479 mV	0%	0.0 nmoles C2 H4 /mg protein/min	0%	0%		
C[n+]1ccnc(CS(C)(=O)=O)c1 [Compound 4700]	5%	1.4 nmoles H2 /mg protein/min	-611 mV	5%	0.7 nmoles C2 H4 /mg protein/min	5%	5%		
CCc1c[n+](C)ccn1 [Compound 4900]	8%	2.2 nmoles H2 /mg protein/min	-700 mV	2%	0.3 nmoles C2 H4 /mg protein/min	2%	2%		
CCCCc1c[n+](C)ccn1 [Compound 5000]	0%	0.0 nmoles H2 /mg protein/min	-676 mV	0%	0.0 nmoles C2 H4 /mg protein/min	0%	0%		
C[n+]1ccnc2ccccc21 [Compound 5200]	0%	0.0 nmoles H2 /mg protein/min	-433 mV	0%	0.0 nmoles C2 H4 /mg protein/min	0%	0%		
Clostridial Ferredoxin: the standard, clostridial ferredoxin; natural protein electron carrier, used in 0.2 mM aqueous solution (AYKIADSCVSCGACASECPVNAISQGDSIFVIDADTCIDCGNCANVCPVGAPVQE; UniProt P00195 2-56, looked up) [reference compound]	100%	26.7 nmoles H2 /mg protein/min	-570 mV	100%	13.5 nmoles C2 H4 /mg protein/min	100%	100%	-570 mV	-570 mV
